In patent US5352608A (priority 1992, dated 1994):
“Also recorded” adds a separate entry of the source.

Columns and labels:
[1] = system: R. sphaeroides 2.4.1; assay type: cell-based, Rhodobacter sphaeroides
[2] = system: Proteobacteria; test: Intrinsic HLR to tellurite, comparison across strains; assay type: cell-based; settings: aerobic vs photosynthetic; exception R. gelatinosus
[3] = system: R. sphaeroides 2.4.1; test: Isolation of tellurium from membrane fractions (Te^IV to Te^o conversion); assay type: cell-based, Rhodobacter sphaeroides
Experimental: Two one-liter cultures of R. sphaeroides 2.4.1 were grown photoheterotrophically (10 W/m^2 incident light intensity) in SMM containing 0.4% succinate to a cell density of approximately 1.5 1.5×10^9 cells/ml. Prior to inoculation one flask was supplemented with 275 mg K2 TeO3 (equivalent to 138.3 mg Te^IV) to give a final medium concentration of […] K2 TeO3.
850 mg of crude membrane-metal complex was isolated. After purification and extraction with acetone:methanol and ethanol, 203 mg of a finely-divided metallic material resulted. Analysis of a 50.4 mg sample of this material identified 23.2 mg of Te^o (a minimum net purity of 46%). The minimum Te^o deposited in the one-liter culture, therefore, was 93 mg (203 mg×0.46) or 0.7333 mmole. Since the growth medium initially contained 138.3 mg of Te^IV, a minimum Te^IV to Te^o conversion of 67% was obtained.

[4] = system: Rhodocyclus gelatinosus str-1; test: Intrinsic HLR to TeO3^2- (MIC); assay type: cell-based
[5] = system: R. sphaeroides 2.4.1; test: Hydrogen evolution from oxyanion reduction; assay type: cell-based, Rhodobacter sphaeroides
[6] = system: tellurite reductase activity, R. sphaeroides 2.4.1; test: TeO3^2- -dependent FADH2 oxidation in subcellular fractions; assay type: biochemical, Rhodobacter sphaeroides; settings: for FADH2 oxidation: 100 μg/ml K2 TeO3
[7] = system: Rhodospirillum rubrum Ha; test: Intrinsic HLR to TeO3^2- (MIC); assay type: cell-based
[8] = system: Rhodobacter sphaeroides 2.4.7; test: Intrinsic HLR to TeO3^2- (MIC); assay type: cell-based
[9] = system: R. sphaeroides 2.4.1ΔS; test: Intrinsic HLR to tellurite in R. sphaeroides mutants (MIC); assay type: cell-based, Rhodobacter sphaeroides; settings: for MIC K2 TeO3: SMM succinate
Experimental: (§1) All Proteobacteria were grown at 30° C. with the exception of E. coli which was cultured at 37° C. on a Gyrotary shaker. Cultures of R. sphaeroides and R. gelatinosus were grown in LB, YP, or SMM containing either 0.4% succinate, 0.4% malate, or 0.4% butyrate as a carbon source. Cultures of R. capsulatus were grown in RCVB minimal medium containing 0.4% malate as a carbon source; R. rubrum was grown in SMM containing 0.4% malate, and 0.1% yeast extract. R. palustris and R. viridis were grown in SMM containing 0.4% malate, 0.1% yeast extract, and 50 μg/ml each of p-aminobenzoic acid and cyanocobalamin. […] Anaerobic-dark growth of R. sphaeroides on SMM medium containing DMSO, and photoheterotrophic growth conditions have been previously reported.
(§2) Several growth conditions were examined to determine requirements for tellurite reduction in vivo. Table 5 indicates the growth conditions tested.
(§3) ^a MIC were determined in SMM containing succinate at 30° C.
(§4) ^c Supplemented with 60 mM DMSO.

[10] = system: R. sphaeroides PUC705B; test: as above; assay type: cell-based, Rhodobacter sphaeroides; settings: SMM succinate
Experimental: as §1, §2, §3, §4

[11] = system: R. sphaeroides PUHA1; test: as above; assay type: cell-based, Rhodobacter sphaeroides; settings: for MIC K2 TeO3: SMM succinate
Experimental: as §1, §2, §3, §4

[12] = system: R. sphaeroides 2.4.1-Ga; test: as above; assay type: cell-based, Rhodobacter sphaeroides; settings: for MIC K2 TeO3: SMM succinate
Experimental: as §1, §2, §3, §4

[13] = system: R. sphaeroides PRKA^- B^-; test: as above; assay type: cell-based, Rhodobacter sphaeroides; settings: for MIC K2 TeO3: SMM succinate
Experimental: as §1, §2, §3, §4

[14] = system: R. sphaeroides CYCA1; test: as above; assay type: cell-based, Rhodobacter sphaeroides; settings: SMM succinate; aerobic; ( ) = resistance but no deposition of Te^0
Experimental: as §1, §2, §3, §4

[15] = system: R. sphaeroides CFXA^-; test: as above; assay type: cell-based, Rhodobacter sphaeroides; settings: for MIC K2 TeO3: SMM succinate; for Increase in TeO3^2- sensitivity: cfxA deletion
Experimental: as §1, §2, §3, §4

[16] = system: R. sphaeroides PRKB^-; test: as above; assay type: cell-based, Rhodobacter sphaeroides; settings: for MIC K2 TeO3: SMM succinate
Experimental: as §1, §2, §3, §4

[17] = system: R. sphaeroides MM1006; test: as above; assay type: cell-based, Rhodobacter sphaeroides; settings: SMM succinate; aerobic; ( ) = resistance but no deposition of Te^0
Experimental: as §1, §2, §3, §4

[18] = system: R. sphaeroides CFXA^- B^-; test: as above; assay type: cell-based, Rhodobacter sphaeroides; settings: for MIC K2 TeO3: SMM succinate
Experimental: as §1, §2, §3, §4

[19] = system: R. sphaeroides BC17; test: as above; assay type: cell-based, Rhodobacter sphaeroides; settings: for MIC K2 TeO3: SMM succinate
Experimental: as §1, §2, §3, §4

[20] = system: R. sphaeroides CFXB^-; test: as above; assay type: cell-based, Rhodobacter sphaeroides; settings: for MIC K2 TeO3: SMM succinate
Experimental: as §1, §2, §3, §4

[21] = system: R. sphaeroides PUFB1; test: as above; assay type: cell-based, Rhodobacter sphaeroides; settings: SMM succinate; aerobic; ( ) = resistance but no deposition of Te^0
Experimental: as §1, §2, §3, §4

[22] = system: Rhodopseudomonas viridis F; test: Intrinsic HLR to TeO3^2- (MIC); assay type: cell-based
[23] = system: Rhodopseudomonas palustris 1e5; test: Intrinsic HLR to TeO3^2- (MIC); assay type: cell-based
[24] = aerobic, ( ) = resistance but no deposition of Te^0

## O=[Te]([O-])[O-].[K+].[K+] [K2 TeO3]
[1]
  Appearance of cells / metal deposit: intracellular accumulation of a dense metal deposit; also recorded: produced a black deposit which did not diffuse into the medium
  Gas evolution: +++ +
  Gas evolution in words: Copious gas evolution
[2]
  MIC increase, cells grown aerobically: approximately 50%
[3]; 250 μg/ml K2 TeO3, photoheterotrophic 10 W/m^2, minimum
  Te^IV to Te^o conversion: ≥ 67%
[3]; discontinuous sucrose gradient
  Localization of deposit after subcellular fractionation: localized to the cytoplasmic membrane
[4]
  Resistance to tellurite in words: low resistance
[4]; aerobic, minimal medium
  MIC K2 TeO3: 5 µg/mL
[4]; photosynthetic, 10 W/m^2
  MIC K2 TeO3: 10 µg/mL
[5]; 1 atm, 303° K., major component H2
  Gas evolved: 8.37 mmol
[5]; culture grown in presence of TeO3^2-
  Water displaced from the gas collection vessel: 208 mL
[5]; per mmole Te^o
  H2 evolved per mmole of Te^o deposited: approximately 11.5 mmoles
[6]; cytoplasm
  FADH2 oxidation: 60 nmol/min/mg
[6]; membrane
  FADH2 oxidation: 300 nmol/min/mg
[6]; periplasm
  FADH2 oxidation: 1 nmol/min/mg
[6]; periplasmic and cytoplasmic fractions of all strains
  Reductase activity in words: Negligible reductase activity
[7]
  Resistance to tellurite in words: low resistance
[7]; aerobic, minimal medium
  MIC K2 TeO3: 20 µg/mL
[7]; photosynthetic, 10 W/m^2
  MIC K2 TeO3: 10 µg/mL
[8]; aerobic, minimal medium
  MIC K2 TeO3: 800 µg/mL
[8]; photosynthetic, 10 W/m^2
  MIC K2 TeO3: 500 µg/mL
[9]
  Effect of 42-kb plasmid deletion on HLR: did not diminish HLR to TeO3^2-
[9]; aerobic
  MIC K2 TeO3: 850 µg/mL
[9]; anaerobic-dark, 60 mM DMSO
  MIC K2 TeO3: 150 µg/mL
[9]; photosynthetic 10 W/m^2
  MIC K2 TeO3: 600 µg/mL
[10]; aerobic
  MIC K2 TeO3: 850 µg/mL
[10]; anaerobic-dark, 60 mM DMSO
  MIC K2 TeO3: 150 µg/mL
[10]; photosynthetic 10 W/m^2
  MIC K2 TeO3: 500 µg/mL
[11]; aerobic
  MIC K2 TeO3: < 10 µg/mL
[11]; anaerobic-dark, 60 mM DMSO
  MIC K2 TeO3: < 10 µg/mL
[11]; all growth conditions
  Concentration to which strain is sensitive: 10 µg/mL
[12]; aerobic
  MIC K2 TeO3: 600 µg/mL
[12]; anaerobic-dark, 60 mM DMSO
  MIC K2 TeO3: 100 µg/mL
[12]; photosynthetic 10 W/m^2
  MIC K2 TeO3: 450 µg/mL
[12]; vs wild-type
  Increase in TeO3^2- sensitivity: 20%
[13]; [24]
  MIC K2 TeO3: 150 µg/mL
[13]; anaerobic-dark, 60 mM DMSO
  MIC K2 TeO3: < 10 µg/mL
[13]; aerobic
  Concentration to which strain is resistant: < 200 µg/mL
[14]
  MIC K2 TeO3: 400 µg/mL
[15]; aerobic
  MIC K2 TeO3: 400 µg/mL
  Increase in TeO3^2- sensitivity: two-fold
[15]; anaerobic-dark, 60 mM DMSO
  MIC K2 TeO3: 50 µg/mL
[15]; photosynthetic 10 W/m^2
  MIC K2 TeO3: 100 µg/mL
[15]; photosynthetic and anaerobic-dark/DMSO, at least
  Increase in TeO3^2- sensitivity: at least three- to five-fold
[16]; aerobic
  MIC K2 TeO3: 800 µg/mL
[16]; anaerobic-dark, 60 mM DMSO
  MIC K2 TeO3: 150 µg/mL
[16]; photosynthetic 10 W/m^2
  MIC K2 TeO3: 500 µg/mL
[16]; single mutation in prkB
  Diminution of HLR to TeO3^2-: 10-20%
[17]
  MIC K2 TeO3: 400 µg/mL
[18]; [24]
  MIC K2 TeO3: 200 µg/mL
[18]; anaerobic-dark, 60 mM DMSO
  MIC K2 TeO3: < 10 µg/mL
[18]; aerobic
  Concentration to which strain is resistant: < 200 µg/mL
[19]; aerobic
  MIC K2 TeO3: < 10 µg/mL
[19]; anaerobic-dark, 60 mM DMSO
  MIC K2 TeO3: < 10 µg/mL
[19]; all growth conditions
  Concentration to which strain is sensitive: 10 µg/mL
[20]; aerobic
  MIC K2 TeO3: 750 µg/mL
[20]; anaerobic-dark, 60 mM DMSO
  MIC K2 TeO3: 150 µg/mL
[20]; photosynthetic 10 W/m^2
  MIC K2 TeO3: 650 µg/mL
[20]; single mutation in cfxB
  Diminution of HLR to TeO3^2-: 10-20%
[21]
  MIC K2 TeO3: 400 µg/mL
[22]; aerobic, minimal medium
  MIC K2 TeO3: 80 µg/mL
[22]; photosynthetic, 10 W/m^2
  MIC K2 TeO3: 50 µg/mL
[23]; aerobic, minimal medium
  MIC K2 TeO3: 200 µg/mL
[23]; photosynthetic, 10 W/m^2
  MIC K2 TeO3: 100 µg/mL
